Laboratory results from the supplement of paper PMC10307832.

What was measured:
Assay in all cases: relative viability (nuclei count vs DMSO), 5 days (fraction); higher = more cells survive
XMD14-99 + Lapatinib = compound: CN1CCN(CC1)C2=CC(=C(C=C2)NC3=NC(=C(S3)C(=O)C4=C(C=CC=C4Cl)Cl)N)OC [XMD14-99] + CS(=O)(=O)CCNCc1ccc(-c2ccc3ncnc(Nc4ccc(OCc5cccc(F)c5)c(Cl)c4)c3c2)o1 [Lapatinib] (partner 2 µM)
Summary of the method: (§1)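 Lung cancer cell lines in 1536-well plates were dosed by pin tool the day after seeding, either with one drug alone or with a fixed anchor-drug dose plus five library-drug doses (not always all listed) in √10 steps. After 5 days, cells were fixed and their nuclei stained in one step (final 0.05% Triton X-100, 1% formaldehyde, 1 ug/ml Hoechst), then counted on 4× images. Relative viability is the nuclei count in treated wells divided by that in vehicle wells. Values are medians of duplicate plates.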

AZD1208 + Decitabine = compound: N[C@@H]1CCCN(c2c(/C=C3\SC(=O)NC3=O)cccc2-c2ccccc2)C1 [AZD1208] + Nc1ncn([C@H]2C[C@H](O)[C@@H](CO)O2)c(=O)n1 [Decitabine] (partner 2 µM)
Summary of the method: as §1

XMD14-99 + Olaparib = compound: CN1CCN(CC1)C2=CC(=C(C=C2)NC3=NC(=C(S3)C(=O)C4=C(C=CC=C4Cl)Cl)N)OC [XMD14-99] + O=C(c1cc(Cc2n[nH]c(=O)c3ccccc23)ccc1F)N1CCN(C(=O)C2CC2)CC1 [Olaparib] (partner 8 µM)
Summary of the method: as §1

AZD1208 + Tozasertib = compound: N[C@@H]1CCCN(c2c(/C=C3\SC(=O)NC3=O)cccc2-c2ccccc2)C1 [AZD1208] + Cc1cc(Nc2cc(N3CCN(C)CC3)nc(Sc3ccc(NC(=O)C4CC4)cc3)n2)n[nH]1 [Tozasertib] (partner 0.1 µM)
Summary of the method: as §1

| Cell Line | relative viability (XMD14-99 + Lapatinib; first compound 0.08 µM) | relative viability (XMD14-99 + Lapatinib; first compound 0.8 µM) | relative viability (XMD14-99 + Lapatinib; first compound 2.53 µM) | relative viability (XMD14-99 + Lapatinib; first compound 8 µM) | relative viability (AZD1208 + Decitabine; first compound 0.08 µM) | relative viability (AZD1208 + Decitabine; first compound 0.253 µM) | relative viability (AZD1208 + Decitabine; first compound 0.8 µM) | relative viability (AZD1208 + Decitabine; first compound 2.53 µM) | relative viability (AZD1208 + Decitabine; first compound 8 µM) | relative viability (XMD14-99 + Olaparib; first compound 0.08 µM) | relative viability (XMD14-99 + Olaparib; first compound 0.8 µM) | relative viability (XMD14-99 + Olaparib; first compound 2.53 µM) | relative viability (XMD14-99 + Olaparib; first compound 8 µM) | relative viability (AZD1208 + Tozasertib; first compound 0.08 µM) | relative viability (AZD1208 + Tozasertib; first compound 0.253 µM) | relative viability (AZD1208 + Tozasertib; first compound 0.8 µM) | relative viability (AZD1208 + Tozasertib; first compound 2.53 µM) | relative viability (AZD1208 + Tozasertib; first compound 8 µM) |
| --- | --- | --- | --- | --- | --- | --- | --- | --- | --- | --- | --- | --- | --- | --- | --- | --- | --- | --- |
| PC-14 | 0.328 | 0.303 | 0.262 | 0.216 | 0.254 | 0.209 | 0.224 | 0.203 | 0.207 | 0.276 | 0.248 | 0.164 | 0.0816 | 0.554 | 0.55 | 0.467 | 0.503 | 0.463 |
| RERF-LC-KJ | 0.849 | 0.837 | 0.799 | 0.829 | 0.66 | 0.674 | 0.632 | 0.586 | 0.555 | 0.986 | 0.856 | 0.882 | 0.648 | 0.505 | 0.423 | 0.56 | 0.519 | 0.384 |
| SK-LU-1 | 0.969 | 0.841 | 0.74 | 0.565 | 0.586 | 0.621 | 0.629 | 0.622 | 0.511 | 0.423 | 0.459 | 0.374 | 0.34 | 0.298 | 0.298 | 0.246 | 0.285 | 0.22 |
| SK-MES-1 | 0.416 | 0.46 | 0.432 | 0.403 | 0.373 | 0.352 | 0.33 | 0.364 | 0.301 | 0.658 | 0.689 | 0.576 | 0.32 | 1 | 0.956 | 0.903 | 0.853 | 0.744 |
| SW 1573 | 1.06 | 1.17 | 1.21 | 0.985 | 0.465 | 0.417 | 0.457 | 0.448 | 0.354 | 0.445 | 0.457 | 0.488 | 0.308 | 0.22 | 0.175 | 0.178 | 0.129 | 0.149 |
